Experiments:
[1] = tested on: ABL1 (human), P00519 [F317I]; experiment: KINOMEscan competition binding; conditions: compound 10.0 µM
DCLK1 (human) = DCLK1 (human) (UniProt O15075); experiment: KINOMEscan competition binding; conditions: compound 10.0 µM
DCLK2 (human) = DCLK2 (human) (UniProt Q8N568); experiment: KINOMEscan competition binding; conditions: compound 10.0 µM
DCLK3 (human) = DCLK3 (human) (UniProt Q9C098); experiment: KINOMEscan competition binding; conditions: compound 10.0 µM
FLT3 (human) = FLT3 (human) (UniProt P36888); experiment: KINOMEscan competition binding; conditions: compound 10.0 µM
[2] = tested on: FLT3 (human), P36888 [D835H]; experiment: KINOMEscan competition binding; conditions: compound 10.0 µM
[3] = tested on: FLT3 (human), P36888 [D835Y]; experiment: KINOMEscan competition binding; conditions: compound 10.0 µM
[4] = tested on: FLT3 (human), P36888 [ITD]; experiment: KINOMEscan competition binding; conditions: compound 10.0 µM
[5] = tested on: FLT3 (human), P36888 [K663Q]; experiment: KINOMEscan competition binding; conditions: compound 10.0 µM
[6] = tested on: FLT3 (human), P36888 [N841I]; experiment: KINOMEscan competition binding; conditions: compound 10.0 µM
MAPK7 (human) = MAPK7 (human) (UniProt Q13164); experiment: KINOMEscan competition binding; conditions: compound 10.0 µM
MYLK4 (human) = MYLK4 (human) (UniProt Q86YV6); experiment: KINOMEscan competition binding; conditions: compound 10.0 µM
PIP5K1A (human) = PIP5K1A (human) (UniProt Q99755); experiment: KINOMEscan competition binding; conditions: compound 10.0 µM
PTK6 (human) = PTK6 (human) (UniProt Q13882); experiment: KINOMEscan competition binding; conditions: compound 10.0 µM
RPS6KA1 KD2 (human) = RPS6KA1 KD2 (human) (UniProt Q15418); experiment: KINOMEscan competition binding; conditions: compound 10.0 µM
RPS6KA6 KD2 (human) = RPS6KA6 KD2 (human) (UniProt Q9UK32); experiment: KINOMEscan competition binding; conditions: compound 10.0 µM
RPS6KA6 KD2 (human), sequence (Q9UK32 whole entry, looked up): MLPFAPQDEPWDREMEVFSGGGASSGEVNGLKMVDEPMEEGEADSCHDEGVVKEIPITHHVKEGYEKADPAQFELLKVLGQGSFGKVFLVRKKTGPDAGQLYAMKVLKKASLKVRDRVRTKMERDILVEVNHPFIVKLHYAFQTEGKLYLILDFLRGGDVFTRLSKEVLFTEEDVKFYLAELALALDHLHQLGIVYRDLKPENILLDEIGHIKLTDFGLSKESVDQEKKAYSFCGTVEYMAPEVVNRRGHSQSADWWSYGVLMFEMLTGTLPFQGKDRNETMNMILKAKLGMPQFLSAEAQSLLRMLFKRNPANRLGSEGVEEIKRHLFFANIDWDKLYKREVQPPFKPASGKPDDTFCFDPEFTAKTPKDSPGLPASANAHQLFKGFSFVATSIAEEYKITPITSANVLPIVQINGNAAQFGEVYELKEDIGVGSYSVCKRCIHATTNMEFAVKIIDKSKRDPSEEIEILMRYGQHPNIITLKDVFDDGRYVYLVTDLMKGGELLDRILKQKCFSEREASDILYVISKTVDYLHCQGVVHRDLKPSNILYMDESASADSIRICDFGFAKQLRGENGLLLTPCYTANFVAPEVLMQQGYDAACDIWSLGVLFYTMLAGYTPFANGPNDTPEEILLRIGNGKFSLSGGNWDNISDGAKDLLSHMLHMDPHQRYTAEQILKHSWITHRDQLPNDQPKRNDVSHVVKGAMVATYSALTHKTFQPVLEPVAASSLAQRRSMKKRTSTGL

TNK2 (human) = TNK2 (human) (UniProt Q07912); experiment: KINOMEscan competition binding; conditions: compound 10.0 µM
ALK (human) = ALK (human) (UniProt Q9UM73); experiment: KINOMEscan competition binding; conditions: compound 10.0 µM
CAMK1D (human) = CAMK1D (human) (UniProt Q8IU85); experiment: KINOMEscan competition binding; conditions: compound 10.0 µM
CAMK2A (human) = CAMK2A (human) (UniProt Q9UQM7); experiment: KINOMEscan competition binding; conditions: compound 10.0 µM
CAMK2G (human) = CAMK2G (human) (UniProt Q13555); experiment: KINOMEscan competition binding; conditions: compound 10.0 µM
CAMKK2 (human) = CAMKK2 (human) (UniProt Q96RR4); experiment: KINOMEscan competition binding; conditions: compound 10.0 µM
CAMKK2 (human), sequence (Q96RR4 whole entry, looked up): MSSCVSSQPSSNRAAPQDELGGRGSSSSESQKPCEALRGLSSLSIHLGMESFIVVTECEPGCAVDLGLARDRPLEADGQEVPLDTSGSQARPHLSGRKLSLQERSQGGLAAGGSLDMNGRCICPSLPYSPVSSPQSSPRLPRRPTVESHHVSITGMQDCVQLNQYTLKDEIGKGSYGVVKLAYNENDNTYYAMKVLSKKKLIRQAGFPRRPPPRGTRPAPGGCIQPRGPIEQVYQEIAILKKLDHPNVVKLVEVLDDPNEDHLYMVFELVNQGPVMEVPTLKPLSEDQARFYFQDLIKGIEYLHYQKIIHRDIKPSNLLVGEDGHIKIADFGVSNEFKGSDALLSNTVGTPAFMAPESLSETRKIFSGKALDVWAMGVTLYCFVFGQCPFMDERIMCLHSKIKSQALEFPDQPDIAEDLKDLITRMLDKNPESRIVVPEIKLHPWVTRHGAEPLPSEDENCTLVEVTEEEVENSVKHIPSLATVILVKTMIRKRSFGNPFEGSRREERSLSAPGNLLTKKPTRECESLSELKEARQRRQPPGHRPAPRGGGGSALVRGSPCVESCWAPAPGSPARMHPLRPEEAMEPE

CLK1 (human) = CLK1 (human) (UniProt P49759); experiment: KINOMEscan competition binding; conditions: compound 10.0 µM
CLK2 (human) = CLK2 (human) (UniProt P49760); experiment: KINOMEscan competition binding; conditions: compound 10.0 µM
DAPK1 (human) = DAPK1 (human) (UniProt P53355); experiment: KINOMEscan competition binding; conditions: compound 10.0 µM
DAPK3 (human) = DAPK3 (human) (UniProt O43293); experiment: KINOMEscan competition binding; conditions: compound 10.0 µM
FER (human) = FER (human) (UniProt P16591); experiment: KINOMEscan competition binding; conditions: compound 10.0 µM
GAK (human) = GAK (human) (UniProt O14976); experiment: KINOMEscan competition binding; conditions: compound 10.0 µM
GAK (human), sequence (O14976 whole entry, looked up): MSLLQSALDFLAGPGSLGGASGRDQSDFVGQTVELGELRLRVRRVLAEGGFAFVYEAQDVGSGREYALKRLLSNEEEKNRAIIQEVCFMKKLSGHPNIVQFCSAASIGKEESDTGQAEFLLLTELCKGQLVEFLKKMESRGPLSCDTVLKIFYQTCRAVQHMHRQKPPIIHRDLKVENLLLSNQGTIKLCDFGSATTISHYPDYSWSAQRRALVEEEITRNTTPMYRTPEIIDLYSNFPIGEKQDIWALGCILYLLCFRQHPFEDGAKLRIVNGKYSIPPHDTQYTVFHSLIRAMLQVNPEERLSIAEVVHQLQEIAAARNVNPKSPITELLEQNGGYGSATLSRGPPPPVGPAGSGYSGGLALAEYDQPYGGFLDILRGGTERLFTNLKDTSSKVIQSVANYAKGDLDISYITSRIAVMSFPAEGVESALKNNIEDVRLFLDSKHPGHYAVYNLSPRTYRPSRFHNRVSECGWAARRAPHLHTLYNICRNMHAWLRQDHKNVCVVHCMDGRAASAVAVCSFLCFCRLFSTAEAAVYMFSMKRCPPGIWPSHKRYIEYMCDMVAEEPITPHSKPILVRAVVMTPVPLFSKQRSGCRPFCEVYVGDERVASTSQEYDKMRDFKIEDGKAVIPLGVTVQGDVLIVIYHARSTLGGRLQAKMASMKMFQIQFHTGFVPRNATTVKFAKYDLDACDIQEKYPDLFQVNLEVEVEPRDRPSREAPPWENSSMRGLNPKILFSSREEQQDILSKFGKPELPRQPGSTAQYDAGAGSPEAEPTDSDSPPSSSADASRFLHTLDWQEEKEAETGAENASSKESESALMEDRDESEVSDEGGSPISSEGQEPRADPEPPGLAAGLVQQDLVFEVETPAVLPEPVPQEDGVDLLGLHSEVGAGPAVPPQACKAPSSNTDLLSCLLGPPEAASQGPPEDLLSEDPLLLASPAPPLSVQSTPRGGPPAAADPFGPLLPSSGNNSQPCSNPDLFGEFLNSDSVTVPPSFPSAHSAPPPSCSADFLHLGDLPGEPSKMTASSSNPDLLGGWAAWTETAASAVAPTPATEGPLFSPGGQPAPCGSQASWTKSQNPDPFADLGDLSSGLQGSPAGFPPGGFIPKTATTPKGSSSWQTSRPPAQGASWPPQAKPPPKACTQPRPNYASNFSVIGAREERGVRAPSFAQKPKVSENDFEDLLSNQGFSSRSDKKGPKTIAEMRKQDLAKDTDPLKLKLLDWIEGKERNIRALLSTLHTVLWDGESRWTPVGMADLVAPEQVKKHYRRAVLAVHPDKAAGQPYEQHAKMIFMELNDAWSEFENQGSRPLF

IGF1R (human) = IGF1R (human) (UniProt P08069); experiment: KINOMEscan competition binding; conditions: compound 10.0 µM
INSRR (human) = INSRR (human) (UniProt P14616); experiment: KINOMEscan competition binding; conditions: compound 10.0 µM
[7] = target: JAK1 JH2 pseudokinase (human) (UniProt P23458); experiment: KINOMEscan competition binding; conditions: compound 10.0 µM
MYLK (human) = MYLK (human) (UniProt Q15746); experiment: KINOMEscan competition binding; conditions: compound 10.0 µM
PLK1 (human) = PLK1 (human) (UniProt P53350); experiment: KINOMEscan competition binding; conditions: compound 10.0 µM
PLK1 (human), sequence (P53350 whole entry, looked up): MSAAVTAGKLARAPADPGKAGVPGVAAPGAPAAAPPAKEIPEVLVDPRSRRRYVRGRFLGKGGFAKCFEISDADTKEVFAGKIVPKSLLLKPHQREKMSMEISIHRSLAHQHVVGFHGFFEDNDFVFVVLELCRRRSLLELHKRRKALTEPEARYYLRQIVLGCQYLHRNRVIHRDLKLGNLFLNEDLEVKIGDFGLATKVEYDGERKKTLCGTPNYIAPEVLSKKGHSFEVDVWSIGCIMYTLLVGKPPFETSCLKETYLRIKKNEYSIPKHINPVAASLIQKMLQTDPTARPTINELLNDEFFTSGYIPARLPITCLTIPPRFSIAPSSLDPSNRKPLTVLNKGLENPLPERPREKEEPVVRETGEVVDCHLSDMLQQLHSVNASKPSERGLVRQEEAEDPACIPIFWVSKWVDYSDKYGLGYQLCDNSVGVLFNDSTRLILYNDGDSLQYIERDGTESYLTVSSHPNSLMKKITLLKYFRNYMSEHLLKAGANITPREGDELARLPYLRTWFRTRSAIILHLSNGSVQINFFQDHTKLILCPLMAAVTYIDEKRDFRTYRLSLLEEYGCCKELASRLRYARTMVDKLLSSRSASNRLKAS

PLK3 (human) = PLK3 (human) (UniProt Q9H4B4); experiment: KINOMEscan competition binding; conditions: compound 10.0 µM
PRKD3 (human) = PRKD3 (human) (UniProt O94806); experiment: KINOMEscan competition binding; conditions: compound 10.0 µM
PTK2 (human) = PTK2 (human) (UniProt Q05397); experiment: KINOMEscan competition binding; conditions: compound 10.0 µM
PTK2B (human) = PTK2B (human) (UniProt Q14289); experiment: KINOMEscan competition binding; conditions: compound 10.0 µM
RPS6KA2 KD2 (human) = RPS6KA2 KD2 (human) (UniProt Q15349); experiment: KINOMEscan competition binding; conditions: compound 10.0 µM
SLK (human) = SLK (human) (UniProt Q9H2G2); experiment: KINOMEscan competition binding; conditions: compound 10.0 µM
STK10 (human) = STK10 (human) (UniProt O94804); experiment: KINOMEscan competition binding; conditions: compound 10.0 µM
STK33 (human) = STK33 (human) (UniProt Q9BYT3); experiment: KINOMEscan competition binding; conditions: compound 10.0 µM
TTK (human) [8] = target: TTK (human) (UniProt P33981); experiment: KINOMEscan competition binding; conditions: for kinase still bound, per cent of control: compound 10.0 µM
TTK (human) [9] = target: TTK (human) (UniProt P33981); experiment: SelectScreen, TR FRET
NLK (human) = NLK (human) (UniProt Q9UBE8); experiment: KINOMEscan competition binding; conditions: compound 10.0 µM
PLK4 (human) = PLK4 (human) (UniProt O00444); experiment: KINOMEscan competition binding; conditions: compound 10.0 µM
ROS1 (human) = ROS1 (human) (UniProt P08922); experiment: KINOMEscan competition binding; conditions: compound 10.0 µM
TNK1 (human) = TNK1 (human) (UniProt Q13470); experiment: KINOMEscan competition binding; conditions: compound 10.0 µM
CAMK2D (human) = CAMK2D (human) (UniProt Q13557); experiment: KINOMEscan competition binding; conditions: compound 10.0 µM
PIK3C2B (human) = PIK3C2B (human) (UniProt O00750); experiment: KINOMEscan competition binding; conditions: compound 10.0 µM
[10] = tested on: EGFR (human), P00533 [747-751 del / S ins]; experiment: KINOMEscan competition binding; conditions: compound 10.0 µM
[11] = tested on: EGFR (human), P00533 [A750P; 747-749 del]; experiment: KINOMEscan competition binding; conditions: compound 10.0 µM
[12] = tested on: EGFR (human), P00533 [G719C; 746-750 del]; experiment: KINOMEscan competition binding; conditions: compound 10.0 µM
[13] = tested on: EGFR (human), P00533 [L861Q]; experiment: KINOMEscan competition binding; conditions: compound 10.0 µM
[14] = tested on: EGFR (human), P00533 [P753S; 747-752 del]; experiment: KINOMEscan competition binding; conditions: compound 10.0 µM
ULK2 (human) = ULK2 (human) (UniProt Q8IYT8); experiment: KINOMEscan competition binding; conditions: compound 10.0 µM
CDK11A (human) = CDK11A (human) (UniProt Q9UQ88); experiment: KINOMEscan competition binding; conditions: compound 10.0 µM

DCLK2 (human), sequence (Q8N568 whole entry, looked up): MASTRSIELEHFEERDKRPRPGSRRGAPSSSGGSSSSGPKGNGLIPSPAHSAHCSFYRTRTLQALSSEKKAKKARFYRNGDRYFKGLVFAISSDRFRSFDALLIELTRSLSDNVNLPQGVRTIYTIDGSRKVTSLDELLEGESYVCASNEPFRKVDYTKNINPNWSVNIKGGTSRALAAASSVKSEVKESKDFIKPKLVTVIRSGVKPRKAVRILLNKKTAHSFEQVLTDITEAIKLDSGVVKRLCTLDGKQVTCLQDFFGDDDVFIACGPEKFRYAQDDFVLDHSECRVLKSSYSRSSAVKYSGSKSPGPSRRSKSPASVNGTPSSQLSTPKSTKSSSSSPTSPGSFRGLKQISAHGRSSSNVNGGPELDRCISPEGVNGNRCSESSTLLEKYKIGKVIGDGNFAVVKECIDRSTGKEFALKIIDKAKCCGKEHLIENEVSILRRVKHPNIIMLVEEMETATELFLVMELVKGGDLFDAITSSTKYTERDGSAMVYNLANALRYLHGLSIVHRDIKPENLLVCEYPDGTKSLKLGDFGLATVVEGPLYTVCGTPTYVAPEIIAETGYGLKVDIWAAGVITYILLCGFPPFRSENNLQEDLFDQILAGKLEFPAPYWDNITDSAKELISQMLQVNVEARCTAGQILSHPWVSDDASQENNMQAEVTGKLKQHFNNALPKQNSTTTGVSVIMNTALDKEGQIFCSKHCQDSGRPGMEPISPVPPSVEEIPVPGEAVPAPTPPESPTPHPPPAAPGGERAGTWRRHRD
DCLK1 (human), sequence (O15075 whole entry, looked up): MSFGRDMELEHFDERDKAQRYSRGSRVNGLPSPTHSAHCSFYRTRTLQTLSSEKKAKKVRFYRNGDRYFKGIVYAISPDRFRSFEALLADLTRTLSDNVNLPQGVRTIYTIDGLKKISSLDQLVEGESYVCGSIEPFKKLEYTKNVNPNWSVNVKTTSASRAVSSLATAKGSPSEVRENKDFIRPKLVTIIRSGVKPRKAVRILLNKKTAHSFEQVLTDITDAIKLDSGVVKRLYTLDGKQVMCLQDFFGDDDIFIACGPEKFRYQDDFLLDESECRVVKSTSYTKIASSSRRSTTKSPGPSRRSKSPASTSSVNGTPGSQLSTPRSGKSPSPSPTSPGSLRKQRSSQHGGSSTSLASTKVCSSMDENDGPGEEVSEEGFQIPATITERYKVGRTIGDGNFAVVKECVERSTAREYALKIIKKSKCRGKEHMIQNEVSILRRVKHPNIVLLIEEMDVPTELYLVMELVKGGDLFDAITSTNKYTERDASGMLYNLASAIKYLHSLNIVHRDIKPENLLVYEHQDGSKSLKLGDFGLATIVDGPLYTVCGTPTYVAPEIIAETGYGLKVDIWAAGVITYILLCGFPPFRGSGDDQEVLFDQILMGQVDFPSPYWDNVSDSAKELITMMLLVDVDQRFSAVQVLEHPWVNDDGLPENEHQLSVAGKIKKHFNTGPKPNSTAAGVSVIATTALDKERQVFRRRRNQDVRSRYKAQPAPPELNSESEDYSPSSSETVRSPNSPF

SMILES | kinase still bound, per cent of control (DCLK1 (human)) [%] | kinase still bound, per cent of control (DCLK2 (human)) [%] | kinase still bound, per cent of control (MAPK7 (human)) [%] | kinase still bound, per cent of control (RPS6KA1 KD2 (human)) [%] | kinase still bound, per cent of control (RPS6KA6 KD2 (human)) [%] | kinase still bound, per cent of control (ALK (human)) [%] | kinase still bound, per cent of control (CAMK2G (human)) [%] | kinase still bound, per cent of control (CAMKK2 (human)) [%] | kinase still bound, per cent of control (GAK (human)) [%] | kinase still bound, per cent of control (IGF1R (human)) [%] | kinase still bound, per cent of control (INSRR (human)) [%] | kinase still bound, per cent of control (MYLK (human)) [%] | kinase still bound, per cent of control (PLK1 (human)) [%] | kinase still bound, per cent of control (PLK3 (human)) [%] | kinase still bound, per cent of control (PTK2 (human)) [%] | kinase still bound, per cent of control (PTK2B (human)) [%] | kinase still bound, per cent of control (RPS6KA2 KD2 (human)) [%] | kinase still bound, per cent of control (SLK (human)) [%] | kinase still bound, per cent of control (STK33 (human)) [%] | kinase still bound, per cent of control (TTK (human) [8]) [%] | other results
CC(C)Oc1cc(N2CCN(C)CC2)ccc1Nc1ncc2c(n1)N(C)c1ccccc1C(=O)N2 | 1.2 | 5.3 | 29 | 14 | 21 |  |  |  |  |  |  |  |  |  |  |  |  |  |  |  | kinase still bound, per cent of control [1]: 26%; kinase still bound, per cent of control (DCLK3 (human)): 8.1%; kinase still bound, per cent of control (FLT3 (human)): 10%; kinase still bound, per cent of control [2]: 14%; kinase still bound, per cent of control [3]: 2.2%; kinase still bound, per cent of control [4]: 2.4%; kinase still bound, per cent of control [5]: 10%; kinase still bound, per cent of control [6]: 0.6%; kinase still bound, per cent of control (MYLK4 (human)): 2.1%; kinase still bound, per cent of control (PIP5K1A (human)): 22%; kinase still bound, per cent of control (PTK6 (human)): 2.6%; kinase still bound, per cent of control (TNK2 (human)): 6.5%
COc1cc(C(=O)NC2CCN(C)CC2)ccc1Nc1ncc2c(n1)N(C1CCCC1)C(C)CC(=O)N2C (configuration not stated) | 4 | 19 |  | 22 | 12 | 6.2 | 34 | 24 | 3.8 | 32 | 26 | 2.8 | 19 | 0 | 0.4 | 13 | 5.8 | 1.4 | 3.6 | 4.6 | kinase still bound, per cent of control (CAMK1D (human)): 17%; kinase still bound, per cent of control (CAMK2A (human)): 21%; kinase still bound, per cent of control (CLK1 (human)): 18%; kinase still bound, per cent of control (CLK2 (human)): 6.2%; kinase still bound, per cent of control (DAPK1 (human)): 26%; kinase still bound, per cent of control (DAPK3 (human)): 17%; kinase still bound, per cent of control (FER (human)): 31%; kinase still bound, per cent of control [7]: 22%; kinase still bound, per cent of control (PRKD3 (human)): 32%; kinase still bound, per cent of control (STK10 (human)): 29%; Kd (TTK (human) [8]): 1430 nM; IC50 (TTK (human) [9]): 5.04 µM
COc1cc(N2CCC(C(N)=O)CC2)ccc1Nc1ncc2c(n1)N(C1CCCC1)[C@@H]1CCC[C@@H]1C(=O)N2C | 15 |  | 0.1 |  |  |  |  |  | 12 |  |  |  | 19 | 4.3 |  |  |  |  |  | 10 | kinase still bound, per cent of control (NLK (human)): 31%; kinase still bound, per cent of control (PLK4 (human)): 28%; kinase still bound, per cent of control (ROS1 (human)): 31%; kinase still bound, per cent of control (TNK1 (human)): 18%
Nc1cnc(/C=C/c2ccc(-c3ccc(S(N)(=O)=O)cc3)o2)cn1 |  |  |  |  |  |  | 34 | 28 |  |  |  |  |  |  |  |  |  |  |  |  | kinase still bound, per cent of control (CAMK2D (human)): 31%; kinase still bound, per cent of control (PIK3C2B (human)): 31%
COc1cc(N2CCC(N3CCN(C)CC3)CC2)ccc1Nc1ncc2c(n1)N(C1CCCC1)C(C)CC(=O)N2C (configuration not stated) | 5.2 | 30 |  |  | 33 | 5 |  | 33 | 1.6 | 29 | 33 | 11 | 7.2 | 5.9 | 1.2 | 4.2 | 16 | 5.6 | 9 | 2 | kinase still bound, per cent of control [10]: 34%; kinase still bound, per cent of control [11]: 27%; kinase still bound, per cent of control [12]: 32%; kinase still bound, per cent of control [13]: 30%; kinase still bound, per cent of control [14]: 34%; kinase still bound, per cent of control (PLK4 (human)): 26%; kinase still bound, per cent of control (ULK2 (human)): 24%
CNS(=O)(=O)c1ccc(-c2ccc(C=C3C(=O)NC(=O)NC3=O)o2)cc1 |  |  |  |  |  |  |  |  |  |  |  |  |  |  |  |  |  |  |  |  | residual activity (CDK11A (human)): 28%

Reference: the kinase profiling compilation of Christmann-Franck et al. (2016)
